Results from patent US20260285875A1, “INHIBITORS OF PARG” (858 Therapeutics, Inc., priority 2023, published 2026).

molecular target: T1, cellular PARG (Homo sapiens, UniProt Q86W56); experiment: Nuclear PAR accumulation assay (immunofluorescence high-content imaging, MMS-treated HeLa cells); format: cell-based; settings: 1 hour compound then MMS 50 μg/mL for an additional hour
T1 construct: endogenous in cells; host or cells: HeLa
Method: HeLa cells were plated at 15,000 cells/well in a 96-well plate the day before compound treatment and then treated with varying concentrations of test compound and incubated for 1 hour at 37° C.+5% CO2. Following test compound treatment, methylmethane sulfonate (MMS) was added to a final concentration of 50 μg/mL and the cells were incubated for an additional hour. Following treatment, the cells were fixed with ice cold 95% methanol and the plates sealed and placed at -20° C. for 15 minutes. The cells were then washed once with phosphate buffered saline (PBS) and permeabilized with 0.10% Triton-X 100 for 20 minutes at room temperature. […] The cells were then washed three times with PBS before incubation with a fluorescently conjugated goat anti-mouse antibody (Invitrogen A32723) diluted 1:500 in 5% FBS+0.1% Tween-20+PBS for 1 hour at room temperature. The cells were again washed three times with PBS and the nuclei labeled by incubating with 1 μg/mL DAPI (4′,6-diamidino-2-phenylindole). Nuclear PAR accumulation was evaluated using high-content fluorescence microscopy. Four fields for each well were acquired at 20× magnification resulting in at least 1,000 cells analyzed per well. […] Both the average intensity per nucleus and percent PAR positive cells were quantified. […] Concentration-response-curves and IC50 values were generated using four parameter logistic curve fit software.
Representative data for exemplary compounds is presented in Table 32, Table 33 and Table 34.

T1 sequence (Q86W56 whole entry): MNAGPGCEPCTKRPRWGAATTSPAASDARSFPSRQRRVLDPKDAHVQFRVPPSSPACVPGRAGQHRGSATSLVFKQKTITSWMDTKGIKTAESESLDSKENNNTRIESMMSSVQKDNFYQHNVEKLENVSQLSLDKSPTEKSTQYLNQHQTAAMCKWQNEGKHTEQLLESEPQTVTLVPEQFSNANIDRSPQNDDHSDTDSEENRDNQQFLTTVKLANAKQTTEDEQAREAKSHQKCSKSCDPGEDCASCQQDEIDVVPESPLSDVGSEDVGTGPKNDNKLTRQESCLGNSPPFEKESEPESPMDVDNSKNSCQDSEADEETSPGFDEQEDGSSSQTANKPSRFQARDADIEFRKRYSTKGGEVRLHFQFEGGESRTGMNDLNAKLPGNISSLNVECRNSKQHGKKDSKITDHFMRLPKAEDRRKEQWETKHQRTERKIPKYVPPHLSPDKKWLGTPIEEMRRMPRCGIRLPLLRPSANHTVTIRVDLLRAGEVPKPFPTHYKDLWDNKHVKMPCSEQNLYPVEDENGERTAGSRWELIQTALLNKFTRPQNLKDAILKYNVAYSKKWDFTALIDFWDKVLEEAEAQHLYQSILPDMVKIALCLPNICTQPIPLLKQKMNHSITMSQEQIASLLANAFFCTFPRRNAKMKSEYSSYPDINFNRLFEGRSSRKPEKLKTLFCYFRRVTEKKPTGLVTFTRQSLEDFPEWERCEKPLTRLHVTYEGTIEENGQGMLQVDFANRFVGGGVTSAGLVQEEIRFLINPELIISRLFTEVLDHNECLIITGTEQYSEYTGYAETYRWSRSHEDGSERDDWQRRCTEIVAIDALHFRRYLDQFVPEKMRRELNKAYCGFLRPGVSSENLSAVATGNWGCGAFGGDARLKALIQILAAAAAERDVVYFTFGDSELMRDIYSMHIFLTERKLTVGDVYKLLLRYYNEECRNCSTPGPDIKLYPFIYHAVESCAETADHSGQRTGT

SMILES | IC50 [nM]
C#C[C@@H]1CN=C2N(Cc3cnn(C)c3)C(=O)c3cc(S(=O)(=O)NC4(C)CC4)cc(C4=CCNCC4)c3N21 [Example 79, (R)-1-ethynyl-4-((1-methyl-1H-pyrazol-4-yl)methyl)-N-(1-methylcyclopropyl)-5-oxo-9-(1,2,3,6-tetrahydropyridin-4-yl)-1,2,4,5-tetrahydroimidazo[1,2-a]quinazoline-7-sulfonamide] | 100 to 1000
CN(C)C(=O)N1CCN(c2cc(S(=O)(=O)NC3(C)CC3)cc3c2N2CC(C)(C)N=C2N(C)C3=O)CC1 [Example 46, N,N-dimethyl-4-(2,2,4-trimethyl-7-(N-(1-methylcyclopropyl)sulfamoyl)-5-oxo-1,2,4,5-tetrahydroimidazo[1,2-a]quinazolin-9-yl)piperazine-1-carboxamide] | < 100
Cn1cc(CN2C(=O)c3cc(S(=O)(=O)NC4(C)CC4)ccc3N3C2=NC[C@H]3COc2ccccc2)cn1 [Example 28, (S)-4-((1-methyl-1H-pyrazol-4-yl)methyl)-N-(1-methylcyclopropyl)-5-oxo-1-(phenoxymethyl)-1,2,4,5-tetrahydroimidazo[1,2-a]quinazoline-7-sulfonamide] | < 100
C[C@@H]1CN(c2cc(S(=O)(=O)NC3(C)CC3)cc3c2N2C(=NC[C@H]2C)N(Cc2cnn(C)c2)C3=O)CCN1 [Example 78, (R)-1-methyl-4-((1-methyl-1H-pyrazol-4-yl)methyl)-N-(1-methylcyclopropyl)-9-((R)-3-methylpiperazin-1-yl)-5-oxo-1,2,4,5-tetrahydroimidazo[1,2-a]quinazoline-7-sulfonamide] | 100 to 1000
C[C@@H]1CN=C2N(Cc3cn(C)nc3C3CC3)C(=O)c3cc(S(=O)(=O)NC4(C)CC4)ccc3N21 [Example 230, (R)-4-((3-cyclopropyl-1-methyl-1H-pyrazol-4-yl)methyl)-1-methyl-N-(1-methylcyclopropyl)-5-oxo-1,2,4,5-tetrahydroimidazo[1,2-a]quinazoline-7-sulfonamide] | < 100
C[C@@H]1CN=C2N(Cc3ccnc(/C=C/CN(C)C)c3)C(=O)c3cc(S(=O)(=O)NC4(C)CC4)ccc3N21 [Example 267, (R,E)-4-((2-(3-(dimethylamino)prop-1-en-1-yl)pyridin-4-yl)methyl)-1-methyl-N-(1-methylcyclopropyl)-5-oxo-1,2,4,5-tetrahydroimidazo[1,2-a]quinazoline-7-sulfonamide] | 1000 to 10000
CCN1C(=O)c2cc(S(=O)(=O)NC3(C)CC3)ccc2N2C1=NC[C@H]2C#Cc1cnc2cccnn12 [Example 189, (R)-4-ethyl-1-(imidazo[1,2-b]pyridazin-3-ylethynyl)-N-(1-methylcyclopropyl)-5-oxo-1,2,4,5-tetrahydroimidazo[1,2-a]quinazoline-7-sulfonamide] | < 100
[2H]C([2H])(c1cnn(C)c1)N1C(=O)c2cc(S(=O)(=O)NC3(C)CC3)cc(Br)c2N2C1=NC[C@@H]2C#CC1CC1 [Example 95, (S)-9-bromo-1-(cyclopropylethynyl)-4-((1-methyl-1H-pyrazol-4-yl)methyl-d2)-N-(1-methylcyclopropyl)-5-oxo-1,2,4,5-tetrahydroimidazo[1,2-a]quinazoline-7-sulfonamide] | 100 to 1000
Cn1cc(CN2C(=O)c3cc(S(=O)(=O)NC4(C)CC4)ccc3N3C2=NC[C@H]3C#Cc2ccnn2C(F)F)cn1 [Example 210, (R)-1-((1-(difluoromethyl)-1H-pyrazol-5-yl)ethynyl)-4-((1-methyl-1H-pyrazol-4-yl)methyl)-N-(1-methylcyclopropyl)-5-oxo-1,2,4,5-tetrahydroimidazo[1,2-a]quinazoline-7-sulfonamide] | < 100
C#C[C@H]1CN2C(=N1)N(Cc1cnn(C)c1)C(=O)c1cc(S(=O)(=O)NC3(C)CC3)ccc12 [Example 156, (S)-2-ethynyl-4-((1-methyl-1H-pyrazol-4-yl)methyl)-N-(1-methylcyclopropyl)-5-oxo-1,2,4,5-tetrahydroimidazo[1,2-a]quinazoline-7-sulfonamide] | 100 to 1000
